biological target: human Nav 1.8 (Homo sapiens, UniProt Q9Y5Y9); assay: E-VIPR assay detecting and measuring Nav inhibition properties; format: cell-based; conditions: HEK cells expressing a truncated form of human Nav 1.8; compound numbers without "*" (not marked as run in the presence of human serum); read-out: measured IC50 value in the E-VIPR Assay
Outline: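 Nav inhibition was read by E-VIPR: cells were electrically stimulated while coumarin/oxonol FRET emissions were recorded. Cells were HEK expressing a truncated human Nav 1.8 and co-transduced with KIR2.1, and were assayed in 25% final human serum.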

human Nav 1.8, sequence (Q9Y5Y9 126-399 limits assumed): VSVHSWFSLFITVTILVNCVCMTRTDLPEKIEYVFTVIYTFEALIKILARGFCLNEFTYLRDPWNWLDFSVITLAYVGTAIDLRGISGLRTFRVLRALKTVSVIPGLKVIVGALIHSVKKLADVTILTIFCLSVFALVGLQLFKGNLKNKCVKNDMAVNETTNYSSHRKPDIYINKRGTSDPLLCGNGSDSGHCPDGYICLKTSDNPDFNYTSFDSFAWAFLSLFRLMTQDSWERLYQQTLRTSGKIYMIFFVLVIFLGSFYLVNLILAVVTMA
human Nav 1.8, sequence (Q9Y5Y9 660-890 limits assumed): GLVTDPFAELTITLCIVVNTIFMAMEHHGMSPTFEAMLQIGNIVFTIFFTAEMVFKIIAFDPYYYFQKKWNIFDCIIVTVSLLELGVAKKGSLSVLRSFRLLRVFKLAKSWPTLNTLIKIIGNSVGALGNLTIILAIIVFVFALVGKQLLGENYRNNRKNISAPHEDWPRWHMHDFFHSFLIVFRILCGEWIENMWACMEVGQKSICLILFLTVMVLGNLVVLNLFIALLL
human Nav 1.8, sequence (Q9Y5Y9 1148-1722 limits assumed): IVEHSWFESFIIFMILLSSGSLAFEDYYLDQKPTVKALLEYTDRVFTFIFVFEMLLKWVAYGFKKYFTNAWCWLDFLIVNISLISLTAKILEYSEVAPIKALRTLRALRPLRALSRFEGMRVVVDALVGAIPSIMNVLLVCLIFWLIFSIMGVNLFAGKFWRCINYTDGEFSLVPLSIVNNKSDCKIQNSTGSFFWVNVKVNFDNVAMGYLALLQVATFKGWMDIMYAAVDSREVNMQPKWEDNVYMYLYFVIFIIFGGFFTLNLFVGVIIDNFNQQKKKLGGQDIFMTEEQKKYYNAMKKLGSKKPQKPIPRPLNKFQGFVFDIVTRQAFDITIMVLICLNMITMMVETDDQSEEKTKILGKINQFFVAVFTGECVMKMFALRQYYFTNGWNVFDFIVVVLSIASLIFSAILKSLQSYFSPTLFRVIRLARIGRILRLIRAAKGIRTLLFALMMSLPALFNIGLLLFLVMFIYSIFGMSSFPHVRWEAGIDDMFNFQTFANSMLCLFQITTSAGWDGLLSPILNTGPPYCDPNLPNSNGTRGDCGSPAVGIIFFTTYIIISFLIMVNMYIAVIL

Row | Compound | IC50 [nM]
1 | COc1c([C@H]2[C@H](C(=O)Nc3ccnc(C(=O)N4C[C@@H](F)[C@H](N(C)C)C4)c3)O[C@@](C)(C(F)(F)F)[C@H]2C)ccc(F)c1F [Compound 299, (2R,3S,4S,5R)-3-(3,4-difluoro-2-methoxyphenyl)-N-(2-((3R,4R)-3-(dimethylamino)-4-fluoropyrrolidine-1-carbonyl)pyridin-4-yl)-4,5-dimethyl-5-(trifluoromethyl)tetrahydrofuran-2-carboxamide] | 10 to 100
2 | COc1c([C@H]2[C@H](C(=O)Nc3ccnc(C(=O)N4C[C@@H](N(C)C)[C@@H](F)C4)c3)O[C@@](C)(C(F)(F)F)[C@H]2C)ccc(F)c1F [Compound 300, (2R,3S,4S,5R)-3-(3,4-difluoro-2-methoxyphenyl)-N-(2-((3R,4S)-3-(dimethylamino)-4-fluoropyrrolidine-1-carbonyl)pyridin-4-yl)-4,5-dimethyl-5-(trifluoromethyl)tetrahydrofuran-2-carboxamide] | 10 to 100
3 | COc1c([C@H]2[C@H](C(=O)Nc3ccnc(C(=O)N4C[C@H](F)[C@@H](N(C)C)C4)c3)O[C@@](C)(C(F)(F)F)[C@H]2C)ccc(F)c1F [Compound 301, (2R,3S,4S,5R)-3-(3,4-difluoro-2-methoxyphenyl)-N-(2-((3S,4S)-3-(dimethylamino)-4-fluoropyrrolidine-1-carbonyl)pyridin-4-yl)-4,5-dimethyl-5-(trifluoromethyl)tetrahydrofuran-2-carboxamide] | 10 to 100

Results, then the molecule that gave them:

Row | IC50 [nM] | Compound
4 | < 10 | CN[C@H]1CN(C(=O)c2cc(NC(=O)[C@@H]3O[C@@](C)(C(F)(F)F)[C@@H](C)[C@H]3c3ccc(F)c(F)c3OC)ccn2)C[C@H]1OC [Compound 297, (2R,3S,4S,5R)-3-(3,4-difluoro-2-methoxyphenyl)-N-(2-((3R,4S)-3-methoxy-4-(methylamino)pyrrolidine-1-carbonyl)pyridin-4-yl)-4,5-dimethyl-5-(trifluoromethyl)tetrahydrofuran-2-carboxamide]
5 | < 10 | COc1c([C@H]2[C@H](C(=O)Nc3ccnc(C(=O)N4C[C@@H](OC)[C@@H](N(C)C)C4)c3)O[C@@](C)(C(F)(F)F)[C@H]2C)ccc(F)c1F [Compound 298, (2R,3S,4S,5R)-3-(3,4-difluoro-2-methoxyphenyl)-N-(2-((3S,4R)-3-(dimethylamino)-4-methoxypyrrolidine-1-carbonyl)pyridin-4-yl)-4,5-dimethyl-5-(trifluoromethyl)tetrahydrofuran-2-carboxamide]
6 | < 10 | COc1c([C@H]2[C@H](C(=O)Nc3ccnc(C(=O)N4C[C@H](OC)[C@H](N(C)C)C4)c3)O[C@@](C)(C(F)(F)F)[C@H]2C)ccc(F)c1F [Compound 302, (2R,3S,4S,5R)-3-(3,4-difluoro-2-methoxyphenyl)-N-(2-((3R,4S)-3-(dimethylamino)-4-methoxypyrrolidine-1-carbonyl)pyridin-4-yl)-4,5-dimethyl-5-(trifluoromethyl)tetrahydrofuran-2-carboxamide]
